Laboratory results from patent US20250109121A1, “POTENT AND SELECTIVE SMARCA2 DEGRADING CHIMERIC MOLECULES AS CANCER THERAPEUTICS” (BOARD OF REGENTS, THE UNIVERSITY OF TEXAS SYSTEM, priority 2021, published 2025).
Read-outs that look alike come from different tables or passages of the source. Each block holds one molecule with its values, some of them ahead of it.

What was measured:
Assay type in all cases: cell-based
SMARCA2 [1] = target: T1, SMARCA2 (Homo sapiens, UniProt P51531); assay: SMARCA2 degradation in cell lines, western blot; details: for SMARCA2 degradation (western blot, in words): 0.001-10 μm; for SMARCA2 expression at 100 nM (in words): H1792 and H1299 cells
T1 sequence (P51531 whole entry): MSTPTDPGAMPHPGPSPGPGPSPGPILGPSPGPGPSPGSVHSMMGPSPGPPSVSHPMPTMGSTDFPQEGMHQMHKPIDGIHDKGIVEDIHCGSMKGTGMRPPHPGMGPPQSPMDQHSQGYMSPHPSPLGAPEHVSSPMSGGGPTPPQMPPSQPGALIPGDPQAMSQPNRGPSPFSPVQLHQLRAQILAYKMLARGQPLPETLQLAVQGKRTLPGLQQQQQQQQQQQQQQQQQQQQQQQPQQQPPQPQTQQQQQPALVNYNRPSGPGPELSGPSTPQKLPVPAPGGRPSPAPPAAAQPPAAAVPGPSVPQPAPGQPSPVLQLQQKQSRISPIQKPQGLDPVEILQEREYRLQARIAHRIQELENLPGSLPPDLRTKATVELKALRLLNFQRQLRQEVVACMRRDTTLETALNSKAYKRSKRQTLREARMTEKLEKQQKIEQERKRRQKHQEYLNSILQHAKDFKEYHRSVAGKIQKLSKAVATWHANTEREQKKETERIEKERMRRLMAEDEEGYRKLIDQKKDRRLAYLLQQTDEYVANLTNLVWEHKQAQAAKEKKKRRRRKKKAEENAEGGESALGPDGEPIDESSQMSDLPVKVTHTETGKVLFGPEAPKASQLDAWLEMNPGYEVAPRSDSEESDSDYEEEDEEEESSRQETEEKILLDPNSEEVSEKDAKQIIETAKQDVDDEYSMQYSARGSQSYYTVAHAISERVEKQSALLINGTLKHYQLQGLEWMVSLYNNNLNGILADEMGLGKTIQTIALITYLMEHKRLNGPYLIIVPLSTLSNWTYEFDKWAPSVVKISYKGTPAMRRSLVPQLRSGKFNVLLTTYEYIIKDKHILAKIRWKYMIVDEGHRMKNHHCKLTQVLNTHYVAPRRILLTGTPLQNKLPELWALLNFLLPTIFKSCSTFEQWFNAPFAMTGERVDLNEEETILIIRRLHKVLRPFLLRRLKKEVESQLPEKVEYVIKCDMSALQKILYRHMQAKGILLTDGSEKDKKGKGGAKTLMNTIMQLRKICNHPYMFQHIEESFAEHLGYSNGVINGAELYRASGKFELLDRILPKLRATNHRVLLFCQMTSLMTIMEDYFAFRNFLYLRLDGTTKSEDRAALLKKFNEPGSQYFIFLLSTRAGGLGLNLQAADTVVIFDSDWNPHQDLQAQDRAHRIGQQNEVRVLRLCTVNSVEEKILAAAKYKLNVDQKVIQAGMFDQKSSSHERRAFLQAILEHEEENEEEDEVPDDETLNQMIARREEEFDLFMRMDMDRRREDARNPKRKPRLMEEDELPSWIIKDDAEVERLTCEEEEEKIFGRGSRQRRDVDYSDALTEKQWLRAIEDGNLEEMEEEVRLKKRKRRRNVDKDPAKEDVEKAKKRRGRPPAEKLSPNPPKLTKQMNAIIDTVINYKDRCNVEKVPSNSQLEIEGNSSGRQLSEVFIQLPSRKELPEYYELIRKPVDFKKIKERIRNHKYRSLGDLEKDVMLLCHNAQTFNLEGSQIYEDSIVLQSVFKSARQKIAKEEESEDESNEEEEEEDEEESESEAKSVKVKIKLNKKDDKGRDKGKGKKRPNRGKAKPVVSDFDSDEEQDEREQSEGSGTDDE
Method: Cell lines with wild-type SMARCA4 (H1975, H1792, H2122, and H441) were treated with DMSO or 0.001, 0.01, 0.1, 1, or 10 μm of ACBI1 (degrader of SMARCA2, SMARCA4 and polybromo-associated BAF complex PBRM1) or Compound 101 and expression levels of SMARCA2 (FIG. 2A) and SMARCA4 (FIG. 2B) were detected by western blot.
(§1) Cell lines with wild-type SMARCA4 (H1792) and mutant SMARCA4 (H1299) were treated for 72 h or 96 h with DMSO or 0.001, 0.01, 0.1, 1, or 10 μm Compound 103 and analyzed by western blot for SMARCA2, SMARCA4, and PBRM1 expression (FIGS. 4A, 4B, and 4C).
(§2) Cell lines with wild-type SMARCA4 (H1792) and mutant SMARCA4 (H1299) were treated for 72 h or 96 h with DMSO or 0.001, 0.01, 0.1, 1, or 10 μm Compound 102 and analyzed by western blot for SMARCA2, SMARCA4, and PBRM1 expression (FIGS. 5A, 5B, and 5C).
(§3) Cell lines with wild-type SMARCA4 (H1975) were treated with DMSO or 0.001, 0.01, 0.1, 1, or 10 μm of Compounds 104, 105, 106, 107, or 108 and analyzed by western blot for SMARCA2, SMARCA4, and PBRM1 expression (FIGS. 6A and 6B).

SMARCA4 [2] = target: SMARCA4 (Homo sapiens, UniProt P51532); assay: SMARCA4 degradation in cell lines, western blot; details: for DC50: read-out: SMARCA4 DC50
Chain of SMARCA4 (Homo sapiens, UniProt P51532) (P51532 whole entry): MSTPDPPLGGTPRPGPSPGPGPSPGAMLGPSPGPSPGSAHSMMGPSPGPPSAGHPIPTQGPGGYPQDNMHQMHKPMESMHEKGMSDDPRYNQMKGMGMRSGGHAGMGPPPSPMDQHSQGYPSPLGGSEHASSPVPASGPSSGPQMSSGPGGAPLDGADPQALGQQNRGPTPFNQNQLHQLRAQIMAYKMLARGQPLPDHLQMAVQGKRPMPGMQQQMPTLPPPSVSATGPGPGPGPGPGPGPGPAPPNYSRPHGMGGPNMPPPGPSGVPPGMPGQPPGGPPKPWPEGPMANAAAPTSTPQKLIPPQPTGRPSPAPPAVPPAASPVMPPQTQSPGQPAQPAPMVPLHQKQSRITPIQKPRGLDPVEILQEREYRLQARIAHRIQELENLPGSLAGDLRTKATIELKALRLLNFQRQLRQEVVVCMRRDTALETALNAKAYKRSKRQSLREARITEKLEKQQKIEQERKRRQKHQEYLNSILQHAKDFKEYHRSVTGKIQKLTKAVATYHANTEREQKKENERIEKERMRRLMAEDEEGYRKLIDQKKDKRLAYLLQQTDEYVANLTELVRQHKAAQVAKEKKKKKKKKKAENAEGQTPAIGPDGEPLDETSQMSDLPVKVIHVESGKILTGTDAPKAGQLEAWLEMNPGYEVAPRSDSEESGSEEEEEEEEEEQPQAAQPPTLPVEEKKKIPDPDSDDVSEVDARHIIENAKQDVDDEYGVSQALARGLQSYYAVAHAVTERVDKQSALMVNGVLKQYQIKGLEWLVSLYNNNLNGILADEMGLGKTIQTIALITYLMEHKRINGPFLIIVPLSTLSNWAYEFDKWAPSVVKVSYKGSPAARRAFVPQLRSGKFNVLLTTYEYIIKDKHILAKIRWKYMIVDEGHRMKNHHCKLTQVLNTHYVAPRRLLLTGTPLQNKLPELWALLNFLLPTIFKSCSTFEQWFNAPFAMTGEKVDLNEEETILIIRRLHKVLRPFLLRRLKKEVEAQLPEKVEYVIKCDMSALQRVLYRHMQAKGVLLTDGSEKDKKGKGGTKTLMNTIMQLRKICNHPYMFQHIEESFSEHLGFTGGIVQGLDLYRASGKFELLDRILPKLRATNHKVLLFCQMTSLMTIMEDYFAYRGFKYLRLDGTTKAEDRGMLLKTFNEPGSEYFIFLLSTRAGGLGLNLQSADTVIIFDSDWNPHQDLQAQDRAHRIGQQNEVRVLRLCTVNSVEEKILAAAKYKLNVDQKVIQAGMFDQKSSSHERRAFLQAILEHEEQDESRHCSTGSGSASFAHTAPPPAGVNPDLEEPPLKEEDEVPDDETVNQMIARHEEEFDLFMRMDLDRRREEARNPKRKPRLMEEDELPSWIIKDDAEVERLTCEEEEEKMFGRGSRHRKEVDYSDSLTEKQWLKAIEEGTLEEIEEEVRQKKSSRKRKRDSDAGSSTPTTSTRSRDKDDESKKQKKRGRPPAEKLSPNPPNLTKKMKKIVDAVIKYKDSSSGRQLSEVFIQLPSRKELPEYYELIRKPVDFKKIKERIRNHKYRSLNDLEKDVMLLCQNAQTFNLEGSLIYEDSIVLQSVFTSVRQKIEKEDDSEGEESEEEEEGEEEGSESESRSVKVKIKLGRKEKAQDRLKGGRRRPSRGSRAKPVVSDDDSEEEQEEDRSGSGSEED

wild-type SMARCA4 cells = assay: Colony assay / cell proliferation, wild-type SMARCA4 cell lines as a group; details: HCC44, H2122, H1792, H1975; 0.001-10 μm
Method: (§4) Cell lines with wild-type SMARCA4 (HCC44, H2122, H1792 and H1975) and cell lines with mutant SMARCA4 (H1693, HCC515, H322, and H1299) were seeded in appropriate dilutions to form colonies in about 1-3 weeks. Cells were treated with ACBI1 or Compound 101 at concentrations of 0.001, 0.01, 0.1, 1, and 10 μm. Colonies were fixed with glutaraldehyde (6% v/v), stained with crystal violet (0.5% w/v) and the percent area of colonies was determined (FIGS. 3A and 3B). In cell lines with wild-type SMARCA4, inhibition of colony growth was more pronounced after treatment with ACBI1 than Compound 101 (FIG. 3A).

mutant SMARCA4 cells = assay: Colony assay / cell proliferation, mutant SMARCA4 cell lines as a group; details: H1693, HCC515, H322, H1299; 0.001-10 μm
Method: as §4

SMARCA2 [3] = target: T1, SMARCA2; assay: SMARCA2 degradation in cell lines, western blot
SMARCA4 [4] = assay: SMARCA4 degradation in cell lines, western blot; details: H1792 and H1299 cells, 72 h or 96 h, 0.001-10 μm
PBRM1 = target: T2, PBRM1 (Homo sapiens, UniProt Q86U86); assay: PBRM1 expression in cell lines, western blot; details: H1792 and H1299 cells, 72 h or 96 h, 0.001-10 μm
T2 construct: heterobifunctional compounds, which recruit endogenous proteins to a ubiquitin ligase for degradation; endogenous in cells; host or cells: H1792, H1299, H1975
T2 sequence (Q86U86 whole entry): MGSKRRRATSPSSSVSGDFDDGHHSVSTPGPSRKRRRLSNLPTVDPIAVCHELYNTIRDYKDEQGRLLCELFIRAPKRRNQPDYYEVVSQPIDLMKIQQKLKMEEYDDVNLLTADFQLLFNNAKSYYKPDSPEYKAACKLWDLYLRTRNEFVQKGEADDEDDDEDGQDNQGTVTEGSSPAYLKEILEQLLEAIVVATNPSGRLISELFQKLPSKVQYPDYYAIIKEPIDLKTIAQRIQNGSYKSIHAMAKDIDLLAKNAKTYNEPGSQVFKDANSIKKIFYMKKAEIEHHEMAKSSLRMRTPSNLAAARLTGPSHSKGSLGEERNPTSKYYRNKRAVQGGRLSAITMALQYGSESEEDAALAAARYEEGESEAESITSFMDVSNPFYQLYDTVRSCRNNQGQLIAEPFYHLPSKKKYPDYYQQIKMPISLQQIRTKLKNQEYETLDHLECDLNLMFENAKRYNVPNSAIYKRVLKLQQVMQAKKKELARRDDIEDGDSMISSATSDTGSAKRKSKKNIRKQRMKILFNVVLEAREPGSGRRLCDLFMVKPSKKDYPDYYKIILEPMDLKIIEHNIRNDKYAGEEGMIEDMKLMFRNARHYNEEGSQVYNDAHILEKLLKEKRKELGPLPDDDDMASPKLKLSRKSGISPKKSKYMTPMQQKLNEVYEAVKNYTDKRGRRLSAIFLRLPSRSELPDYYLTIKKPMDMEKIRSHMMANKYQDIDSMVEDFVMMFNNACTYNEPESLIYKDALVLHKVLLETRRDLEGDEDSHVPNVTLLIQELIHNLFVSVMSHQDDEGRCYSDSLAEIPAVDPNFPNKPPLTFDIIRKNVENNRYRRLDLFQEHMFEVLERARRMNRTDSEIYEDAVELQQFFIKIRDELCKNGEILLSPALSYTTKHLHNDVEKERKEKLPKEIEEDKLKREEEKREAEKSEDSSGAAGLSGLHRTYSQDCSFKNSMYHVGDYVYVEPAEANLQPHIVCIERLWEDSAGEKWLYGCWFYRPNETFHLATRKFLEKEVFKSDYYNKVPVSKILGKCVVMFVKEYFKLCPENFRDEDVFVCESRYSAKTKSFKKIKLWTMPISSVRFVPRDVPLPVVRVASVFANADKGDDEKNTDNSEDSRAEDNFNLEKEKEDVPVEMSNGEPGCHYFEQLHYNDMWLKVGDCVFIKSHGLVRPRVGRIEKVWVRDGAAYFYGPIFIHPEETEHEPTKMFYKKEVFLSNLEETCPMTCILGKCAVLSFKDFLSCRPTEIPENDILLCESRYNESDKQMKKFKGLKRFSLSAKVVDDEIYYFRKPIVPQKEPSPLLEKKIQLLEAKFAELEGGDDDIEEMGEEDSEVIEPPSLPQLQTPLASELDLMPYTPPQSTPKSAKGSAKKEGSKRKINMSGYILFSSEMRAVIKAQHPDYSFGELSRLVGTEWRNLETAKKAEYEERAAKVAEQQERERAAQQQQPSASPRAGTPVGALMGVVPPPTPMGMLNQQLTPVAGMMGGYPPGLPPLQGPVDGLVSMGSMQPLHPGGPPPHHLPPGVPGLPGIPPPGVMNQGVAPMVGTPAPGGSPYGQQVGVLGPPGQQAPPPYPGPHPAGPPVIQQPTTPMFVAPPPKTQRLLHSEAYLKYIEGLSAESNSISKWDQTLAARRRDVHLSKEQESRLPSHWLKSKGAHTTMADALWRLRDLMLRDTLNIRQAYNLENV
Method: as §1, §2, §3

[5] = H441, wild-type SMARCA4 cell line
[6] = H1792, wild-type SMARCA4 cell line
[7] = H2122, wild-type SMARCA4 cell line
[8] = H1975, wild-type SMARCA4 cell line
[9] = H1792 (wild-type SMARCA4) and H1299 (mutant SMARCA4) cells, 72 h or 96 h

Structure (SMILES): Cc1ncsc1-c1ccc(CNC(=O)[C@@H]2C[C@@H](O)CN2C(=O)[C@@H](NC(=O)C2(F)CC2)C(C)(C)C)c(OCCOc2ccc(CN3CCN(c4cc(-c5ccccc5O)nnc4N)CC3)cc2)c1 [ACBI1, reference compound]
DC50 (SMARCA2 [1]; [5]): 11 nM
DC50 (SMARCA2 [1]; [6]): 7 nM
SMARCA2 degradation (western blot, in words) (SMARCA2 [1]; H1975, H1792, H2122, H441, increasing concentrations): degraded SMARCA2 and SMARCA4
DC50 (SMARCA2 [1]; H1975, wild-type SMARCA4 cell line, concentration at which 50% of the target protein is degraded): 51 nM
DC50 (SMARCA2 [1]; [7]): 13 nM
SMARCA4 Dmax (%) (SMARCA4 [2]; [5]): 99%
DC50 (SMARCA4 [2]; [5]): 36 nM
SMARCA4 Dmax (%) (SMARCA4 [2]; [6]): 98%
DC50 (SMARCA4 [2]; [6]): 18 nM
SMARCA4 Dmax, span over cell lines (SMARCA4 [2]; H1975, H1792, H2122, H441 (Table 3)): 97-99%
SMARCA4 degradation (western blot, in words) (SMARCA4 [2]; H1975, H1792, H2122, H441, 0.001-10 μm, increasing concentrations): degraded SMARCA2 and SMARCA4
SMARCA4 Dmax (%) (SMARCA4 [2]; [8]): 98%
DC50 (SMARCA4 [2]; [8]): 98 nM
SMARCA4 Dmax (%) (SMARCA4 [2]; [7]): 97%
DC50 (SMARCA4 [2]; [7]): 32 nM
colony growth / proliferation of wild-type SMARCA4 cells (in words) (wild-type SMARCA4 cells): inhibited wild-type and mutant SMARCA4 cells
colony growth / proliferation of mutant SMARCA4 cells (in words) (mutant SMARCA4 cells): inhibited wild-type and mutant SMARCA4 cells
SMARCA2 Dmax (%) (SMARCA2 [3]; [5]): 97%
SMARCA2 Dmax (%) (SMARCA2 [3]; [6]): 97%
SMARCA2 Dmax (%) (SMARCA2 [3]; H1975, wild-type SMARCA4 cell line, maximum degradation as percentage of DMSO control): 98%
SMARCA2 Dmax (%) (SMARCA2 [3]; [7]): 95%

SMARCA2 degradation (western blot, in words) (SMARCA2 [1]; [9]): efficiently degraded SMARCA2
Structure (SMILES): Nc1nnc(-c2ccccc2O)cc1N1CCN(Cc2ccc(N3CCN(CCOc4cccc5c4C(=O)N(C4CCC(=O)NC4=O)C5=O)CC3)c(F)c2)CC1 (centres unmarked) [Compound 102]
SMARCA2 expression at 100 nM (in words) (SMARCA2 [1]): significantly inhibited SMARCA2 expression
SMARCA4 expression (western blot, in words) (SMARCA4 [4]): reduced expression of SMARCA4
PBRM1 expression (western blot, in words) (PBRM1): did not have a significant effect on the expression of PBRM1

SMARCA2 degradation (western blot, in words) (SMARCA2 [1]; [9]): efficiently degraded SMARCA2
Structure (SMILES): Nc1nnc(-c2ccccc2O)cc1N1CCN(Cc2ccc(N3CCC(CN4CCN(c5ccc6c(c5)C(=O)N(C5CCC(=O)NC5=O)C6=O)CC4)CC3)c(F)c2)CC1 (centres unmarked) [Compound 103]
SMARCA2 expression at 100 nM (in words) (SMARCA2 [1]): significantly inhibited SMARCA2 expression
SMARCA4 expression (western blot, in words) (SMARCA4 [4]): reduced expression of SMARCA4 in H1792 cells
PBRM1 expression (western blot, in words) (PBRM1): did not have a significant effect on the expression of PBRM1
